Measured values: patent publication US5137906A, “Treatment of central nervous system disorders with benzimidazole angiotensin-II receptor antagonists” (E. I. Du Pont de Nemours and Company, priority 1990, dated 1992)
Entries after “also recorded” stand apart in the source; their conditions may differ.

Assays:
[1] = test system: AII receptor subtype-1 (AII-1); settings: cited from earlier work
[2] = test system: AII binding sites in the brain; assay: binding of AII antagonists to sections of brain slices; settings: in words
[3] = test system: AII receptor subtype-2 (AII-2); settings: cited from earlier work
[4] = test system: renin-induced disruption of passive avoidance retention; assay: renin-disrupted passive avoidance retention; assay type: in vivo, male Sprague-Dawley rats; settings: for protection against / prevention of renin-induced amnesia: co-administered with renin IVT
Method: Experimentally naive male Sprague-Dawley rats 100 to 125 days old (Charles River Breeding Laboratories, Kingston, N.Y.), weighing between 175 to 200 gm were used. The animals were housed four per cage (45.0 L×20.0 H×26.0 W cm) with free access to food and water. They were maintained on a 12 h light/dark cycle (lights on 0600 h) and at a room temperature of 22°±1° C. with relative humidity of 50±10%.
The experimental sessions were conducted in a two-compartment passive avoidance box. One compartment, made of clear plastic with a perforated clear plastic floor, measured 21(L)×24.5(H)×17(W) cm and was illuminated with a 60 watt incandescent light bulb placed 36 cm above the floor. The other compartment, made of black plastic, measured 30.5 (L)×20.3 (H)×21.5 (W) cm with a floor made of 4 mm stainless steel rods spaced 1.2 cm apart. A grid floor shocker (Coulbourn Instruments) was connected to the steel rods and provided scrambled footshock. The two compartments were separated by a solenoid-operated slide door (Lafayette Instrument Co., Lafayette, Ind.). An electronic counter (Coulbourn Instruments), triggered by the opening or closing of the slide door, recorded acquisition and retention latencies (latencies were defined as the time it took an animal to enter the dark compartment).
Passive avoidance training began by placing the rat into the clear compartment of the two-compartment passive avoidance box. Following a 10 sec delay, the slide door for the dark compartment was raised. Once the rat moved completely into the dark compartment (all four paws on the shock grid floor) the slide door was lowered, and after a 10 sec. delay, a 1.0 mA shock was applied to the grid floor for three sec. A second three s shock was delivered after an additional 10 sec delay. The rats were immediately removed from the dark compartment and returned to their home cage. A retention test was given 24 h later. It proceeded in the same manner as the training session except that no shock was applied to the grid floor when the rats were provided access to the dark compartment for a maximum of 300 sec.
Doses are expressed as the free base weight of each compound.

[5] = test system: scopolamine-induced amnesia of a PA response; settings: in words; 1, 3 and 10 mg/kg PO three times per day; cited from earlier work
[6] = test system: ACh in the striatum and hypothalamus; settings: in words; acute or repeated administration; cited from earlier work
[7] = test system: scopolamine-induced impairment of eight arm radial maze performance; settings: in words; 3 mg/kg IP; cited from earlier work
uphill avoidance = settings: in words; 30 mg/kg PO, acute; cited from earlier work
[8] = test system: anticholinergic scopolamine-induced disruption of performance; settings: in words; daily treatment; cited from earlier work
[9] = test system: light/dark habituation performance; settings: in words; subchronic treatment; cited from earlier work
avoidance learning = settings: in words, cited from earlier work
[10] = test system: passive avoidance (PA) response; settings: in words; injected into dorsal neostriatum; cited from earlier work
[11] = test system: release of ACh in entorhinal cortex from rat brain; settings: in words; cited from earlier work
[12] = test system: AII in cerebrospinal fluid (CSF); settings: after renin into lateral ventricle; increased from 40; cited from earlier work
[13] = compound 10 μg/5 μL IVT + renin 1.0 μg/5 μL IVT
[14] = compound 30 μg/5 μL IVT + renin 1.0 μg/5 μL IVT
[15] = compound 100 μg/5 μL IVT + renin 1.0 μg/5 μL IVT

In the case of `O[C@H](CS)[C@H](O)CS` (racemic) [DTT, dithiothreitol], the “inactivation of AII-1 receptor by DTT” value ([1]; in words) is listed as “particularly sensitive to inactivation”, the “sensitivity of AII binding sites in the brain, minor clusters (AII-1 receptors)” value ([2]; AII-1) is listed as “DTT-sensitive” and the “sensitivity of the majority of AII binding sites in the brain (AII-2 receptors)” value [2] is listed as “DTT-sensitive”. For the same molecule, the “inactivation of AII-2 receptor by DTT” value ([3]; in words) was “resistant”.

For `CCCc1nc(C(F)(F)F)c(C(=O)O)n1Cc1ccc(-c2ccccc2-c2nnn[nH]2)cc1` [Compound C, 2-n-propyl-1-[(2'-(1H-tetrazol-5-yl)biphenyl-4-yl)methyl]-4-trifluoromethylimidazole-5-carboxylic acid], the “Median Retention Latency” value [4, 13] was 264 s, the “Median Retention Latency” value [4, 14] was 300 s and the “Median Retention Latency” value [4, 15] was 34.5 s. For the same molecule, the “protection against / prevention of renin-induced amnesia” value (from here on “protection against / prevention”) ([4]; in words) was “protected against the amnesia”.

In the case of `CCCc1nc(C(F)(F)F)c(CO)n1Cc1ccc(-c2ccccc2-c2nnn[nH]2)cc1` [Compound D, 2-n-propyl-5-hydroxymethyl-1-[(2'-(1H-tetrazol-5-yl)biphenyl-4-yl)methyl]-4-trifluoromethylimidazole], the “Median Retention Latency” value [4, 14] is reported as 242 s, the “Median Retention Latency” value [4, 15] is reported as 10 s and the “protection against / prevention” value ([4]; in words) is reported as “protected against the amnesia”.

In the case of `Cc1cc(Cn2cnc3c2CC(C(=O)O)N(C(=O)C(c2ccccc2)c2ccccc2)C3)ccc1N` (stereo not drawn) [EXP655, 1-(4-amino-3-methylphenyl)methyl-5-diphenylacetyl-4,5,6,7-tetrahydro-1H-imidazo[4,5-c]pyridine-6-carboxylic acid], the IC50 ([1]; AII-1 site, rat adrenal cortex, Chiu et al. 1989, read-out: inhibitory constant IC50 value) is listed as roughly 300 µM, the “affinity/specificity for the AII-1 site” value ([1]; in words, rat adrenal cortex) is listed as “very low affinity” and the “sensitivity of the majority of AII binding sites in the brain (AII-2 receptors)” value [2] is listed as “EXP655-sensitive”. The “Median Retention Latency” value ([4]; compound 0.1 μg/5 μL IVT + renin 1.0 μg/5 μL IVT) was 19 s, the “Median Retention Latency” value ([4]; compound 0.3 μg/5 μL IVT + renin 1.0 μg/5 μL IVT) was 22 s and the “Median Retention Latency” value ([4]; compound 1.0 μg/5 μL IVT + renin 1.0 μg/5 μL IVT) was 15 s. For the same molecule, the “Median Retention Latency” value ([4]; compound 3.0 μg/5 μL IVT + renin 1.0 μg/5 μL IVT) was 29 s, the “Median Retention Latency” value [4, 13] was 15 s and the “Median Retention Latency” value [4, 14] was 67 s. For the same molecule, the “Median Retention Latency” value [4, 15] was 16 s, the “protection against / prevention” value ([4]; in words) was “much less effective in preventing the amnesia” and the IC50 ([3]; AII-2 site, rat adrenal cortex, Chiu et al. 1989, read-out: inhibitory constant IC50 value) was roughly 0.1 µM.

For `CCOC(=O)C(CCc1ccccc1)NC(C)C(=O)N1CC2(CC3CCC2CC3)CC1C(=O)O` (stereo not drawn) [Hoe 288], the “effect on scopolamine-induced PA amnesia” value [5] is listed as “partially reversed the amnesia”, the “change in ACh in the striatum and hypothalamus” value [6] is listed as “significant decrease in ACh in the striatum and hypothalamus” and the “effect on muscarinic receptor blockade impairment of performance” value [7] is listed as “partially antagonized the effects of muscarinic receptor blockade on performance”. The “performance during retention testing, uphill avoidance” value (uphill avoidance) was “improved performance during retention testing”.

For `C[C@H](CS)C(=O)N1CCC[C@H]1C(=O)O` [captopril], the “effect on scopolamine-induced disruption of performance” value [8] is given as “prevented”, the “rate of acquisition of light/dark habituation performance” value [9] is given as “increased the rate of acquisition” and the “prevention of renin-induced amnesia in PA task by IVT captopril” value ([4]; in words, own laboratory, captopril IVT) is given as “prevented”. The “effect on renin-induced avoidance disruption” value (avoidance learning; IVT prior to renin injection) was “prevented the renin-induced avoidance disruption”.

For `NC(=O)[C@@H]1CCCN1C(=O)[C@H](Cc1cnc[nH]1)NC(=O)[C@@H]1CCC(=O)N1` [thyrotropin releasing hormone], the “effect on retention of a PA response” value [10] is listed as “no effect”.

In the case of “Angiotensin II (DRVYIHPF; Angiotensin-2; UniProt P01019 25-32, looked up) [AII]”, the “effect on retention of a PA response” value [10] is given as “disruption in retention of a PA response”, the “effect on basal levels of ACh release” value [11] is given as “without effects on basal levels” and the “effect on potassium-stimulated release of ACh” value [11] is given as “reduced potassium-stimulated release of ACh”.

In the case of “[1-sarcosine, 8-threonine]angiotensin II”, the “antagonism of AII effect on ACh release” value [11] is given as “antagonized”.

In the case of lysine-8-vasopressin, the “effect on retention of a PA response” value [10] is given as “no effect”.

B1: renin: Renin (Sigma Chemicals), a stimulator of endogenous AII biosynthesis (protein, UniProt P00797 67-406, looked up)
Renin: LTLGNTTSSVILTNYMDTQYYGEIGIGTPPQTFKVVFDTGSSNVWVPSSKCSRLYTACVYHKLFDASDSSSYKHNGTELTLRYSTGTVSGFLSQDIITVGGITVTQMFGEVTEMPALPFMLAEFDGVVGMGFIEQAIGRVTPIFDNIISQGVLKEDVFSFYYNRDSENSQSLGGQIVLGGSDPQHYEGNFHYINLIKTGVWQIQMKGVSVGSSTLLCEDGCLALVDTGASYISGSTSSIEKLMEALGAKKRLFDYVVKCNEGPTLPDISFHLGGKEYTLTSADYVFQESYSSKKLCTLAIHAMDIPPPTGPTWALGATFIRKFYTEFDRRNNRIGFALAR
In the case of B1, the “AII in cerebrospinal fluid” value [12] is given as “about 5000 fmol per mL”, the “Median Retention Latency” value ([4]; Table 1, renin 0.1 μg/5 μL IVT) is given as 254 s and the “Median Retention Latency” value ([4]; Table 1, renin 0.5 μg/5 μL IVT) is given as 117 s. The “Median Retention Latency” value ([4]; Table 1, renin 1.0 μg/5 μL IVT) was 27 s, the “Median Retention Latency” value ([4]; Table 1, renin 3.0 μg/5 μL IVT) was 56.5 s and the “Median Retention Latency” value ([4]; Table 1, renin 5.0 μg/5 μL IVT) was 17 s. For the same molecule, the “Median Retention Latency” value ([4]; Table 2, renin 1.0 μg/5 μL IVT, Compound C 0 (renin-alone group)) was 48 s, the “Median Retention Latency” value ([4]; Table 3, renin 1.0 μg/5 μL IVT, Compound D 0 (renin-alone group)) was 32 s and the “Median Retention Latency” value ([4]; Table 4, renin 1.0 μg/5 μL IVT, EXP655 0 (renin-alone group)) was 15.5 s. The “memory deficit / amnesia in PA task” value ([4]; in words, renin IVT) was “produces a reliable memory deficit in rats; also recorded: dose-related amnesia” and the “effect on avoidance learning” value (avoidance learning; renin into lateral ventricle (IVT)) was “disruption of avoidance learning”.
